Five molecules from ChEMBL document CHEMBL5335823, “Synthesis, biological evaluation, and stability studies of raloxifene mono- and bis-sulfamates as dual-targeting agents” (Bioorg Med Chem, 2024) can be followed below.

The target in series [1] is T1, Steryl-sulfatase (Homo sapiens, UniProt P08842).
T1 sequence (P08842 whole entry): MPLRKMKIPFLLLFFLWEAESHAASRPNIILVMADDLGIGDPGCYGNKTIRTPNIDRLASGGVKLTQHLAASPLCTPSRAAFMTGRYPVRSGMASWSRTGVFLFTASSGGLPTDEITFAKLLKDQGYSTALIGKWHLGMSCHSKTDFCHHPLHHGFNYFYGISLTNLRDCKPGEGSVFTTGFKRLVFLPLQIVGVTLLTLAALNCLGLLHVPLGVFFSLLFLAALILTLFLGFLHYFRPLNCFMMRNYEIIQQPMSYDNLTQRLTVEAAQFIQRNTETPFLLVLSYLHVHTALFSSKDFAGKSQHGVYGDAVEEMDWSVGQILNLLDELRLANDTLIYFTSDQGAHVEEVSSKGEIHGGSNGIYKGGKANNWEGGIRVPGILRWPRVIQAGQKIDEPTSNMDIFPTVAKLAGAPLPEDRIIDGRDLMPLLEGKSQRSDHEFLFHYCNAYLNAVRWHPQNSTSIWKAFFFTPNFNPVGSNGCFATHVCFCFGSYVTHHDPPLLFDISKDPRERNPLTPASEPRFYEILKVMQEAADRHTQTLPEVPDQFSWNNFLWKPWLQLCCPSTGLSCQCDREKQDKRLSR
The experiment in a line: Inhibition of STS in human JEG-3 cell lysates assessed as inhibition of estrone E1 formation using [3H]estrone sulfate as substrate incubated for 1 hr in presence of E1S by scintillation spectrometry. The format is subcellular.

Series [2] has as its target T1, Steryl-sulfatase. Nature of the series: Inhibition of STS in human JEG-3 cells assessed as inhibition of estrone E1 formation using [3H]estrone sulfate as substrate incubated for 20 hrs in presence of E1S by scintillation spectrometry. The format is cell-based.
Series [3] in a line: Stability of the compound in wet DMSO-d6 assessed as parent compound remaining at 8 umol measured at room temperature after 45 days by 1HNMR spectroscopy. The format is physicochemical. As to conditions: at 8 µmol, time 45 day, read-out: Stability; call rule not given here.
Series [4] deals with T47D. The experiment in a line: Antiproliferative activity against human T47D cells assessed as inhibition of cell growth at 10 uM incubated for 5 days by crystal violet staining based analysis. The class given is functional. Conditions: 120 h, time 5 day.
For series [5], the target named is T2, Estrogen receptor (Homo sapiens) (UniProt P03372).
T2 sequence (whole entry): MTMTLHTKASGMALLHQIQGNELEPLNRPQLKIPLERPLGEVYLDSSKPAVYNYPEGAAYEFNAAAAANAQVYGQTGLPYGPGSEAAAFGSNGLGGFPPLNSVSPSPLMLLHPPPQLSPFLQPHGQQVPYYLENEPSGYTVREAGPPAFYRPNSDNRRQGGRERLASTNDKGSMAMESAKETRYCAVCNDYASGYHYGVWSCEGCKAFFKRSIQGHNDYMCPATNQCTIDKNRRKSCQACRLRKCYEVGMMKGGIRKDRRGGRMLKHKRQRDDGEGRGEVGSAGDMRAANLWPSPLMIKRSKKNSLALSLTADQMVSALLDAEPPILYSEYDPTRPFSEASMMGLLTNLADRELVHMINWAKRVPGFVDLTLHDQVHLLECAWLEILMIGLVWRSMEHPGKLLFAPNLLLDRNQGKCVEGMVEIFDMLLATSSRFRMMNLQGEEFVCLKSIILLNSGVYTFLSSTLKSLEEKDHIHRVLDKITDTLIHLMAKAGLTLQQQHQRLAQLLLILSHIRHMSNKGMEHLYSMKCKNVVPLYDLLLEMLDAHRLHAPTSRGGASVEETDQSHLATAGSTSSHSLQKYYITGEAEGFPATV
Nature of the series: Antagonist activity at ER-alpha (unknown origin) at 10 microM by ER-alpha coactivator assay.

In series [6] the test system is SF-539. The experiment in a line: Antiproliferative activity against human SF-539 cells assessed as inhibition of cell growth measured after 72 hrs by CellTiter-Glo assay. The format is functional.
The test system of series [7] is T47D. The experiment in a line: Antiproliferative activity against human T47D cells assessed as inhibition of cell growth incubated for 5 days by crystal violet staining based analysis. The format is functional. Conditions: 120 h, time 5 day.
The test system of series [8] is OVCAR-4. Nature of the series: Antiproliferative activity against human OVCAR-4 cells assessed as inhibition of cell growth measured after 72 hrs by CellTiter-Glo assay. The class given is functional. (In ATP-based viability assays light output follows the ATP content of the culture.)
In series [9] the test system is SN12C. Nature of the series: Antiproliferative activity against human SN12C cells assessed as inhibition of cell growth measured after 72 hrs by CellTiter-Glo assay. The format is functional.
Series [10] relates to HOP-62. The experiment in a line: Antiproliferative activity against human HOP-62 cells assessed as inhibition of cell growth measured after 72 hrs by CellTiter-Glo assay. The format is functional.
Series [11] in a line: Stability of the compound in wet DMSO-d6 assessed as parent compound remaining at 7.9 umol measured at room temperature after 30 days by 1HNMR spectroscopy. The class given is physicochemical. Conditions: at 7.9 µmol, time 30 day, read-out: Stability.
Series [12] relates to UACC-62. Nature of the series: Antiproliferative activity against human UACC-62 cells assessed as inhibition of cell growth measured after 72 hrs by CellTiter-Glo assay. The format is functional.
Series [13] concerns HCT-116. Nature of the series: Antiproliferative activity against human HCT-116 cells assessed as inhibition of cell growth measured after 72 hrs by CellTiter-Glo assay. The class given is functional.
Series [14] deals with MDA-MB-231. Nature of the series: Antiproliferative activity against human MDA-MB-231 cells assessed as inhibition of cell growth measured after 72 hrs by CellTiter-Glo assay. The format is functional.
Series [15] has as its system CCRF-CEM. The experiment in a line: Antiproliferative activity against human CCRF-CEM cells assessed as inhibition of cell growth measured after 72 hrs by CellTiter-Glo assay. The class given is functional.
Series [16] can be described thus: Stability of the compound in wet DMSO-d6 assessed as parent compound remaining at 7.9 umol measured at room temperature after 6 days by 1HNMR spectroscopy. The class given is physicochemical. As to conditions: at 7.9 µmol, time 6 day, read-out: Stability.
The subject of series [17] is DU-145. The experiment in a line: Antiproliferative activity against human DU-145 cells assessed as inhibition of cell growth measured after 72 hrs by CellTiter-Glo assay. The class given is functional.
Series [18] can be described thus: Stability of the compound in wet DMSO-d6 assessed as parent compound remaining at 6.2 umol measured at room temperature after 45 days by 1HNMR spectroscopy. The format is physicochemical. As to conditions: at 6.2 µmol, time 45 day, read-out: Stability.
A short description of series [19]: Stability of the compound in wet DMSO-d6 assessed as parent compound remaining at 6.2 umol measured at room temperature after 6 days by 1HNMR spectroscopy. The class given is physicochemical. Conditions: at 6.2 µmol, time 6 day, read-out: Stability.

For `NS(=O)(=O)Oc1ccc(-c2sc3cc(O)ccc3c2C(=O)c2ccc(OCCN3CCCCC3)cc2)cc1`, the IC50 in series [1] (read-out: IC50) was 3.4 µM; in [2] (read-out: IC50) it was 0.607 µM. The remaining at 1080 h, 8 umol in [3] stood at 12%. In series [4], the inhibition at 10 µM was 12%. The inhibition in [5] was found to be 27%.
As for `NS(=O)(=O)Oc1ccc(-c2sc3cc(OS(N)(=O)=O)ccc3c2C(=O)c2ccc(OCCN3CCCCC3)cc2)cc1`, the GI50 in [6] is 13.1 µM; in [7] it was 7.12 µM; in series [8] it was 10.6 µM; in series [9], 1.61 µM; in series [10] it was 14.8 µM; in series [12] it was 1.47 µM. For the same molecule, the concentration for 50% growth inhibition (GI50) in series [13] is 14.6 µM; in series [14] it was 1.34 µM; in series [15], 9.02 µM; in series [17], 16 µM. In addition, the concentration for half-maximal inhibition (IC50) stood at 0.0966 µM in series [1] (read-out: IC50) and 0.0122 µM in series [2] (read-out: IC50). For the same molecule, in series [11], the remaining at 720 h, 7.9 umol was found to be 0%. The remaining at 144 h, 7.9 umol in series [16] came to 27%.
As to `Cl.O=C(c1ccc(OCCN2CCCCC2)cc1)c1c(-c2ccc(O)cc2)sc2cc(O)ccc12` [RALOXIFENE HYDROCHLORIDE], the IC50 entry in [1] (jeg-3) is recorded as “Not Active”.
As to `O=C(c1ccc(OCCN2CCCCC2)cc1)c1c(-c2ccc(O)cc2)sc2cc(O)ccc12` [RALOXIFENE], the 50% growth inhibitory concentration (GI50) in [7] is 6.89 µM. Further, the 50% inhibitory concentration (IC50) entry in series [1] (jeg-3) and in series [2] (jeg-3) was “Not Active” each time. Moreover, the inhibition at 10 µM in series [4] was 78%.
For `NS(=O)(=O)Oc1ccc2c(C(=O)c3ccc(OCCN4CCCCC4)cc3)c(-c3ccc(O)cc3)sc2c1`, the concentration for half-maximal inhibition (IC50) in series [1] (read-out: IC50) came to 2.08 µM; in series [2] (read-out: IC50), 0.332 µM. The remaining at 1080 h, 6.2 umol in [18] is 18%. In addition, the remaining at 144 h, 6.2 umol in [19] came out at 70%.

What is called IC50 is the point on the concentration scale where inhibition reaches its midpoint. What is called inhibition is the change of the read-out against control, counted positive when it falls. One may read the GI50 as the concentration at which growth is held to half of that of the control.
